One block for each compound: values may come before it.
Key:
enkephalinase = target: T1, enkephalinase (Rattus norvegicus, UniProt P07861); experiment: Enkephalinase-inhibiting activity, method B (striatal membrane homogenate, 3H-leucine enkephalin hydrolysis to 3H-TGG); format: biochemical, rats; conditions: method B (figures marked with an asterisk), 3H-leucine enkephalin 3 x 10^-8M, 22°C, only approximate due to catabolism of 3H-TGG by aminopeptidase(s), read-out: Approx IC50
T1 construct: from tissue; host or cells: rat striatum, crude washed membrane pellet (47,000 g)
T1 sequence (P07861 1-750): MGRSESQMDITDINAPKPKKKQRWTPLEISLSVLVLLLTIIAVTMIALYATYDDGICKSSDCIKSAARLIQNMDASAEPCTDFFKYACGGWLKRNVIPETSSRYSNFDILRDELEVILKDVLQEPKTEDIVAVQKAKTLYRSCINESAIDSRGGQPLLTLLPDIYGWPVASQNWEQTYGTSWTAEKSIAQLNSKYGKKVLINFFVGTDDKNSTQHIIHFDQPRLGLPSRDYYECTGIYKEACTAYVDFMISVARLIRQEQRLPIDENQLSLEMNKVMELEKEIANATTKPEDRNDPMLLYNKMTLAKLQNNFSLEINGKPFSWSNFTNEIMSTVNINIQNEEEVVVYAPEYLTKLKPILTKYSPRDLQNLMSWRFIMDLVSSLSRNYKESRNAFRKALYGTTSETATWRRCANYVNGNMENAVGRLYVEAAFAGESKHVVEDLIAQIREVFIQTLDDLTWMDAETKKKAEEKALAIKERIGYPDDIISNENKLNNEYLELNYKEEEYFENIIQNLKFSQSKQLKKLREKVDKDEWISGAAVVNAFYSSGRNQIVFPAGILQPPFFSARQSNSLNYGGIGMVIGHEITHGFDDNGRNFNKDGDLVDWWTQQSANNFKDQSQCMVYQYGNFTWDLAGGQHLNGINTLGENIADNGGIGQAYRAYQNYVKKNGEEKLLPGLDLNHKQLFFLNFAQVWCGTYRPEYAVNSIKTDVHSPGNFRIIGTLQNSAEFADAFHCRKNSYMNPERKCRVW
Protocol: B) The following method is-a modification of the method of Malfroy et al; Nature Vol..276, 30 November 1978 pages 523 to 526. Three rats were killed by decapitation and the striata dissected out on ice. The pooled tissues were homogenised in ice-cold Tris/hydrochloric acid buffer (50 mM, pH 7.60, 10.0 ml) and centrifuged (1000 g, 10 mins). The resulting supernatant was recentrifuged (47,000 g, 20 mins) and the second supernatant discarded. The pellet was washed twice and finally resuspended in buffer as before (9.6 ml) and aliquots (1.9 ml) of this suspension incubated at 22°C. […] At the completion of incubation N hydrochloric acid (50 μl) was added, the mixture heated in a boiling water bath for 15 mins and precipitated material then removed by centrifugation (1500 g, 10 mins). Separation of • (a) unchanged ^3H-leucine enkephalin, • ([…]-OH (^3H-TGG), generated from (a) by enkephalinase, and • (c) ^3H-Tyr-OH, generated from both (a) and (b) by aminopeptidase(s) in the supernatant and the subsequent procedure was carried out as described in method A) above.

enkephalinase Al = target: T2, enkephalinase Al (Rattus norvegicus, UniProt P07861); experiment: Enkephalinase-inhibiting activity, method A (purified enkephalinase A1, 3H-leucine enkephalin hydrolysis to 3H-TGG, TLC separation); format: biochemical, Rats; conditions: leucine enkephalin 5 x 10^-5M, 30°C, IC50 determined graphically, read-out: Approx IC50
T2 construct: the solubilised enzymes contained in the supernatant separated by DEAE- cellulose column chromatography; Enkephalinase Al was further purified by Sephacryl S.300 chromatography; from tissue; host or cells: rat striatum (Triton X-100 solubilised membrane pellet, DEAE-cellulose and Sephacryl S.300 chromatography)
T2 sequence (P07861 1-750): T1 sequence (P07861 1-750)

mice = experiment: Antinociceptive activity, acetic acid writhing assay (modified Siegmund et al.); format: in vivo
Protocol: The antinociceptive activity of compound 1 was tested in vivo in mice using the following method:-
A modification of the writhing assay of Siegmund et al (Proc. Soc. exp. Biol. Med., 1957, 95: 727-731) was used. Compound 1 dissolved in saline, or saline alone, was administered intracerebroventricularly (i.c.v.) to groups of 5 mice at the doses shown below.-1 hour or 2 hours later, the mice were injected i.p. with the nonciceptive stimulus, i.e. 0.6% (v/v) aqueous acetic acid. […] An antinociceptive compound will reduce the number of writhes and this may be expressed as a percentage inhibition: [formula]

IC50 (enkephalinase): 7.2 µM
Compound: CC(C)C[C@H](NC(=O)[C@@H](CC(=O)O)Cc1ccccc1)C(=O)O [compound 2, (2S)-2-[(2R)-2-benzyl-3-carboxypropanamido]-4-methylpentanoic acid]

IC50 (enkephalinase Al): > 100 µM
Compound: CC(C)C[C@H](NC(=O)[C@@H](CC(=O)O)Cc1ccccc1)C(N)=O [compound 4, (2S)-2-[(2R)-2-Eenzyl-3-carboxypropanamido]-4-methylpentanamide]

IC50 (enkephalinase Al): 0.33 µM
Compound: CC(C)C[C@H](NC(=O)C(CS)Cc1ccccc1)C(N)=O (mixture of isomers) [compound 9, (2S)-2-[(2RS)-2-Benzyl-3-mercaptopropanamido]-4-methylpentanamide]

IC50 (enkephalinase Al): 17 µM
Compound: CC(C)C[C@H](NC(=O)C(CC(=O)O)Cc1ccccc1)C(=O)O (mixture of isomers) [compound 1, (2S)-2-[(2RS)-2-Benzyl-3-carboxypropanamido]-4-methylpentanoic acid]
% inhibition of writhes (mice; 5 µg mouse i.c.v., 1h prior to acetic acid): slight potentiation
% inhibition of writhes (mice; 5 µg mouse i.c.v., 2h prior to acetic acid): 36%
% inhibition of writhes (mice; 10 µg mouse i.c.v., 1h prior to acetic acid): 28%
% inhibition of writhes (mice; 10 µg mouse i.c.v., 2h prior to acetic acid): 48%
% inhibition of writhes (mice; 20 µg mouse i.c.v., 1h prior to acetic acid): 32%
% inhibition of writhes (mice; 20 µg mouse i.c.v., 2h prior to acetic acid): 44%
% inhibition of writhes (mice; 40 µg mouse i.c.v., 1h prior to acetic acid): 75%
% inhibition of writhes (mice; 40 µg mouse i.c.v., 2h prior to acetic acid): 84%

Compound: (2S)-2-[(2RS)-3-Acetylthio-2-benzylpropanamido]-4-methylpentanoic acid, dicyclohexylamine salt [compound 6]
IC50 (enkephalinase Al): 11 µM

IC50 (enkephalinase): > 100 µM
Compound: (2$)-2-[(2R)-2-Benzyl-3-carboxypropanamido]-4-methylpentanamide [compound 10]

IC50 (enkephalinase): 4 µM
Compound: CC(C)C[C@H](NC(=O)[C@H](CC(=O)O)Cc1ccccc1)C(=O)O [compound 3, (2S)-2-[(2S)-2-benzyl-3-carboxypropanamido]-4-methylpentanoic acid]

IC50 (enkephalinase Al): 19 µM
Compound: CSCC[C@@H](NC(=O)C(CC(=O)O)Cc1ccccc1)C(=O)O (mixture of isomers) [compound 12, (2R)-2-[(2RS)-2-Benzyl-3-carboxypropanamido]-4-(methylthio)butanoic acid]

IC50 (enkephalinase Al): 0.15 µM
Compound: CSCC[C@@H](NC(=O)C(CS)Cc1ccccc1)C(=O)O (stereo partly drawn) [compound 15, (2R)-2-[2RS-2-Benzyl-3-mercaptopropanamido]-4-(methylthio)-butanoic acid]

IC50 (enkephalinase Al): 65 µM
Compound: CC(C)C[C@H](NC(=O)C(CC(=O)O)Cc1ccc([N+](=O)[O-])cc1)C(=O)O (stereo partly drawn) [compound 14]

IC50 (enkephalinase Al): 3000 µM
Compound: C[C@H](CS)C(=O)N1CCC[C@H]1C(=O)O [Captopril, 1-(D-3-mercapto-2-methylpropanoyl)-L-proline (R,S), reference compound]

IC50 (enkephalinase Al): 4.3 µM
Compound: CSCC[C@H](NC(=O)C(CC(=O)O)Cc1ccccc1)C(=O)O (mixture of isomers) [compound 13, (2S)-2-[(2RS)-2-Benzyl-3-carboxypropanamido]-4-(methylthio)butanoic acid]

IC50 (enkephalinase Al): > 500 µM
Compound: CC(C)C[C@@H](NC(=O)C(CC(=O)O)Cc1ccccc1)C(=O)O (stereo partly drawn) [compound 11, (2R)-2-[(2RS)-2-Benzyl-3-carboxypropanamido,]-4-methylpentanoic acid]

Source: patent EP0038046A2, “Pharmaceutical amides, and preparation, formulations and use thereof” (THE WELLCOME FOUNDATION LIMITED, priority 1980, dated 1981)
